The values that follow come from ChEMBL document CHEMBL4627289, “Design, synthesis and evaluation of unnatural peptides as T1R2/T1R3 PAMs” (Bioorg Med Chem Lett, 2020).

The experiment concerns the target T1R2/T1R3 (Homo sapiens) (UniProt Q8TE23+Q7RTX0). Description: Positive allosteric modulation of human TIR2/TIR3 expressed in PEAKrapid cells assessed as potentiation of sucrose-induced intracellular calcium influx by measuring sucrose EC50 at 30 uM measured for 120 secs by fluorescence based assay relative to FEMA4774. It counts as functional, cell-based. In general terms: A change in cytosolic calcium serves as a functional read-out for many receptors and channels.

Consider `CC(C)(C)CC(=O)NC(C)(C)CC(=O)Nc1cncc(C(=O)O)c1N`, for which the Efficacy amounted to 64%.
Regarding `CC(C)(CC(=O)Nc1cncc(C(=O)O)c1N)NC(=O)CC1CCCC1`, the Efficacy was determined as 79%.
On to `CC(C)(CC(=O)Nc1cncc(C(=O)O)c1N)NC(=O)C1(c2ccccc2)CC1`, for which the Efficacy worked out at 54%.
Take `CC(C)(CC(=O)Nc1cncc(C(=O)O)c1N)NC(=O)[C@H]1CC[C@H](N)CC1`: the Efficacy is 55%.
Turning to `CC(C)(CC(=O)Nc1cncc(C(=O)O)c1N)NC(=O)C[C@H]1CCNC1`, the Efficacy was found to be 52%.
In the case of `CC(C)(CC(=O)Nc1cncc(C(=O)O)c1N)NC(=O)[C@@H](N)c1ccccc1`, the Efficacy worked out at 61%.
For `CC(C)(CC(=O)Nc1cncc(C(=O)O)c1N)NC(=O)CC1(CN)CCCCC1`, the Efficacy was determined as 80%.
Consider `CC(C)(CC(=O)Nc1cncc(C(=O)O)c1N)NC(=O)[C@@H]1CCC[C@H](N)C1`, for which the Efficacy is 57%.
As to `CC(C)C(=O)NC(C)(C)CC(=O)Nc1cncc(C(=O)O)c1N`, the Efficacy is 54%.
On to `CC(C)(CC(=O)Nc1cncc(C(=O)O)c1N)NC(=O)[C@@H](N)C1CCCCC1`, for which the Efficacy was 96%.
Regarding `CC(C)(CC(=O)Nc1cncc(C(=O)O)c1N)NC(=O)CC1CCCCC1`, the Efficacy amounted to 85%.
Consider `CC(C)(CC(=O)Nc1cncc(C(=O)O)c1N)NC(=O)CCC1CCCCC1`, for which the Efficacy came out at 65%.
Consider `CCCCCCCC/C=C\CCCCCCCC(=O)NC(C)(C)CC(=O)Nc1cncc(C(=O)O)c1N`, for which the Efficacy was 55%.
Turning to `CC(C)(CC(=O)Nc1cncc(C(=O)O)c1N)NC(=O)C[C@@H]1CCNC1`, the Efficacy amounted to 56%.
Take `CC(C)(CC(=O)Nc1cncc(C(=O)O)c1N)NC(=O)C1CCCCC1`: the Efficacy is 71%.
Turning to `CC(C)C[C@H](NC(=O)[C@@H](NC(=O)OC(C)(C)C)C1CCCCC1)C(=O)NC(C)(C)CC(=O)Nc1cncc(C(=O)O)c1N`, the Efficacy is 85%.
`CC(C)(CC(=O)Nc1cncc(C(=O)O)c1N)NC(=O)C1CCNCC1`: the Efficacy is 56%.
Turning to `CCCCCCCCCCCC(=O)NC(C)(C)CC(=O)Nc1cncc(C(=O)O)c1N`, the Efficacy is 50%.
Consider `CCCCCCCC(=O)NC(C)(C)CC(=O)Nc1cncc(C(=O)O)c1N`, for which the Efficacy came to 57%.
In the case of `CC(C)(CC(=O)Nc1cncc(C(=O)O)c1N)NC(=O)C1CCNC1` (centres undefined), the Efficacy came to 55%.
In the case of `CC(C)[C@H](N)C(=O)NC(C)(C)CC(=O)Nc1cncc(C(=O)O)c1N`, the Efficacy stood at 61%.
`CC(C)C[C@H](N)C(=O)NC(C)(C)CC(=O)Nc1cncc(C(=O)O)c1N`: the Efficacy was determined as 73%.
In the case of `CC(C)(CC(=O)Nc1cncc(C(=O)O)c1N)NC(=O)c1cccc(N)c1`, the Efficacy turned out to be 56%.
`CC(C)(CC(=O)Nc1cncc(C(=O)O)c1N)NC(=O)c1cccc2c1CCCC2`: the Efficacy came out at 73%.
For the compound `CC(C)CC(=O)NC(C)(C)CC(=O)Nc1cncc(C(=O)O)c1N`, the Efficacy is 60%.
In the case of `CCCCCC(=O)NC(C)(C)CC(=O)Nc1cncc(C(=O)O)c1N`, the Efficacy was determined as 65%.
With `CC(C)(CC(=O)Nc1cncc(C(=O)O)c1N)NC(=O)c1ccc(N)cc1`, the Efficacy amounted to 56%.
In the case of `CC(C)C[C@H](NC(=O)[C@@H](N)C1CCCCC1)C(=O)NC(C)(C)CC(=O)Nc1cncc(C(=O)O)c1N`, the Efficacy stood at 77%.
Turning to `CC(C)(CC(=O)Nc1cncc(C(=O)O)c1N)NC(=O)[C@H](N)C1CCCCC1`, the Efficacy was found to be 59%.
The figure for `CCCCCCC(=O)NC(C)(C)CC(=O)Nc1cncc(C(=O)O)c1N` is 59%; for `CC[C@H](C)[C@H](NC(=O)[C@@H](NC(=O)OC(C)(C)C)C1CCCCC1)C(=O)NC(C)(C)CC(=O)Nc1cncc(C(=O)O)c1N` it is 84%; for `CC(C)(CC(=O)Nc1cncc(C(=O)O)c1N)NC(=O)c1ccccc1` it is 50%.
The result for `CC(C)(CC(=O)Nc1cncc(C(=O)O)c1N)NC(=O)CC[C@@H](N)Cc1ccccc1` reads 54%; that for `CC(C)(CC(=O)Nc1cncc(C(=O)O)c1N)NC(=O)C(C)(C)C`, 58%.
The result for `CC[C@H](C)[C@H](NC(=O)[C@@H](N)C1CCCCC1)C(=O)NC(C)(C)CC(=O)Nc1cncc(C(=O)O)c1N` reads 76%.
As for `CC(C)(CC(=O)Nc1cncc(C(=O)O)c1N)NC(=O)[C@@H](N)CC1CCCCC1`, the Efficacy is 57%.
The figure for `CC(C)(CC(=O)Nc1cncc(C(=O)O)c1N)NC(=O)C1(N)CCCCC1` is 59%; for `CC(C)(CC(=O)Nc1cncc(C(=O)O)c1N)NC(=O)[C@H]1CC[C@@H](N)CC1` it is 58%; for `CC(C)(CC(=O)Nc1cncc(C(=O)O)c1N)NC(=O)[C@@H](NC(=O)[C@@H](N)C1CCCCC1)C1CCCCC1` it is 92%.
